From patent EP1721601A1, “Use of taurine for enhancing lipid synthesis in the epidermis” (Henkel Kommanditgesellschaft auf Aktien, priority 2005, dated 2006)
Entries after “also recorded” stand apart in the source; their conditions may differ.

Key:
[1] = system: epidermale Barrierefunktion; assay: Epidermal barrier function (TEWL) after repetitive SDS damage in vivo
Excerpt: Anschließend wurden Öl-in-Wasser-Emulsionen mit 1,5 Gew.-% Behenylalkohol und 2,75 Gew.-% Arachidylalkohol (VAR1: 0 Gew.-% Taurin; VAR2: 1 Gew.-% Taurin) appliziert, oder die Haut verblieb unbehandelt (VAR3). Diese Behandlung wurde zweimal täglich an 5 Tagen durchgeführt. Der transepidermale Wasserverlust (TEWL) wurde jeweils vor der SDS-Schädigung mit einem […] (Courage & Khazaka, Köln, Germany) bestimmt. Die Daten wurden auf die t0-Werte normiert und ein dimensionsloser Wert "area under the curve" errechnet (siehe Tabelle 1). Die statistische Analyse der Daten basiert auf dem gepaarten Wilcoxon-Test. Die Daten repräsentieren die Mittelwerte (n=18). Tab. 2: Einfluss von Taurin auf Irritationsmarker in vitro

Epidermismodelle [2] = assay: Irritation markers in vitro: viability and LDH release of SDS-damaged epidermis models; type: cell-based; conditions: for LDH-Freisetzung / Vitalität: 1 h 0,18% SDS, rinsed, then 24 h topical emulsion (C: 0.1 Gew.-% Triamcinolonacetonid; E: 1 Gew.-% Taurin; B: no further treatment), mean +/- SEM, n=3; for LDH-Freisetzung: unbehandelt 0,22, Vehikel 1,95; for Vitalität: unbehandelt 100, Vehikel 66
Protocol: (§1) Anschließend wurden die Epidermismodelle abgespült und für weitere 24h unter topischer Applikation folgender Emulsionen inkubiert: C: Kortikoid-ratiopharm® Creme (0.1 Gew.-% Triamcinolonacetonid); D: 1,5 Gew.-% Behenylalkohol + 2,75 Gew.-% Arachidylalkohol; E: 1,5 Gew.-% Behenylalkohol + 2,75 Gew.-% Arachidylalkohol +1 Gew.-% Taurin. […] Die Daten repräsentieren die Mittelwerte +/-SEM (n=3).

[3] = system: Interleukin 1-alpha (IL-1alpha); assay: Irritation markers in vitro: IL-1alpha release of SDS-damaged epidermis models; type: cell-based; conditions: for IL-1alpha-Freisetzung: 1 h 0,18% SDS, rinsed, then 24 h topical emulsion (C: 0.1 Gew.-% Triamcinolonacetonid; E: 1 Gew.-% Taurin; B: no further treatment), mean +/- SEM, n=3, unbehandelt 15, Vehikel 387
Protocol: as §1

Prostaglandin E2 (PGE2) = assay: Irritation markers in vitro: PGE2 release of SDS-damaged epidermis models; type: cell-based; conditions: for PGE2-Freisetzung: 1 h 0,18% SDS, rinsed, then 24 h topical emulsion (C: 0.1 Gew.-% Triamcinolonacetonid; E: 1 Gew.-% Taurin; B: no further treatment), mean +/- SEM, n=3, unbehandelt 0,84, Vehikel 1,40
Protocol: as §1

Epidermismodelle [4] = assay: Epidermal synthesis of barrier lipids in epidermis models; type: cell-based
Protocol: Epidermismodelle wurden 12 Tage lang kultiviert. Nach 12 Tagen (t = 0) wurden die individuell entwickelten sogenannten Barrierelipide (Ceramide, Cholesterol, Fettsäuren, Cholesterolsulfate und Cholesterolester) quantifiziert. Anschließend wurde ein Teil der Epidermismodelle 5 Tage lang ohne Zusatz von Taurin weiterkultiviert. Ein anderer Teil der Epidermismodelle wurde 5 Tage lang […] Zusatz von 0,3 mM Taurin weiterkultiviert. Nach insgesamt 17 Tagen Kultivierungsdauer (t = 5) wurden erneut die Barrierelipide quantifiziert. […] Die in Tab. 3 gezeigten Unterschiede zu t = 5 waren statistisch signifikant (p<0,05). Tabelle 3: Einfluss von Taurin auf die epidermale Synthese von Barrierelipiden (Angaben der Menge an Barrierelipiden in Gew.-%, bezogen auf den Gesamtlipidgehalt der Epidermismodelle, Mittelwerte aus n = 4 Messungen (± Standardabweichung))

[5] = incubation of skin models with Taurin, result in words

Compound | TEWL "area under the curve", Mittelwert in % (Unbehandelt = 100 %) ([1]; O/W emulsion with 1 Gew.-% Taurin after occlusive 0.75% SDS, twice daily on 5 days, n=18, Vehikel 62,5 %) | transepidermaler Wasserverlust (TEWL), "area under the curve", Mittelwert ([1]; O/W emulsion with 1 Gew.-% Taurin after occlusive 0.75% SDS, twice daily on 5 days, normalised to t0, n=18) [arbitrary units] | Regeneration der Hautbarrierefunktion nach SDS-Schädigung ([1]; application of Taurin, result in words) | transepidermaler Wasserverlust (TEWL) ([1]; topical application of Taurin after repeated SDS treatment of the skin, result in words) | LDH-Freisetzung (Epidermismodelle [2]) | Vitalität (Epidermismodelle [2]) | Integrität der Keratinozytenmembran (Epidermismodelle [2]; [5]) | Vitalität der Keratinozyten (Epidermismodelle [2]; [5]) | IL-1alpha-Freisetzung [3] [pg/mL] | Ausschüttung von Interleukin-1-alpha [3, 5] | PGE2-Freisetzung (Prostaglandin E2 (PGE2)) | Ausschüttung von Prostaglandin-E2 (Prostaglandin E2 (PGE2); [5]) | Cholesterolsulfat (Epidermismodelle [4]; 0,3 mM Taurin for 5 days (t = 5, 17 days culture), % of total lipid content, mean of n = 4 (± SD), without Taurin 0,6) | Cholesterol-ester (Epidermismodelle [4]; 0,3 mM Taurin for 5 days (t = 5, 17 days culture), % of total lipid content, mean of n = 4 (± SD), without Taurin 0,9) | Fettsäuren (Epidermismodelle [4]; 0,3 mM Taurin for 5 days (t = 5, 17 days culture), % of total lipid content, mean of n = 4 (± SD), without Taurin 3,5) | Ceramide (Epidermismodelle [4]; 0,3 mM Taurin for 5 days (t = 5, 17 days culture), % of total lipid content, mean of n = 4 (± SD), without Taurin 7,1) | Cholesterol (Epidermismodelle [4]; 0,3 mM Taurin for 5 days (t = 5, 17 days culture), % of total lipid content, mean of n = 4 (± SD), without Taurin 9,9) | Spiegel an Ceramiden, Cholesterol und freien Fettsäuren (Epidermismodelle [4]; skin models with Taurin, result in words) | epidermale Synthese von Barrierelipiden (Epidermismodelle [4]; skin/epidermis models with Taurin, result in words, differences at t = 5 significant (p<0,05))
NCCS(=O)(=O)O [Taurin, 2-Aminoethansulfonsäure] | 30,3% | 881932 | signifikant beschleunigt | senkte den TEWL in signifikantem Ausmaß | 1,30 +/- 0,15 OD 492nm | 82 +/- 2% | stabilisierte sich | verbesserte sich | 288 ± 37 | nahm die Ausschüttung von Interleukin-1-alpha und von Prostaglandin-E2 ab | 0,83 +/- 0,05 ng/ml | nahm die Ausschüttung von Interleukin-1-alpha und von Prostaglandin-E2 ab | 1,0 (± 0,2) Gew.-% | 1,6 (± 0,2) Gew.-% | 5,7 (± 1,5) Gew.-% | 11.7 (± 1,6) Gew.-% | 11,0 (± 1,2) Gew.-% | in gleichem Ausmaß | in signifikantem Ausmaß die Synthese aller drei Klassen von Barrierelipiden; also recorded: Steigerung der epidermalen Synthese von Barrierelipiden
CC1(C)O[C@@H]2C[C@H]3[C@@H]4CCC5=CC(=O)C=C[C@]5(C)[C@@]4(F)[C@@H](O)C[C@]3(C)[C@]2(C(=O)CO)O1 [Triamcinolonacetonid, reference compound] | – | – | – | – | 1,19 +/- 0,16 OD 492nm | 86 +/- 8% | – | – | 292 ± 26 | – | 0,30 +/- 0,05 ng/ml | – | – | – | – | – | – | – | –
